Molecular target: T1, BRD4 bromodomains (Homo sapiens, UniProt O60885)
T1 construct: fused on or other part: T7 phage capsid protein (phage-display fusion; the phage DNA is read out by qPCR)
Test: BROMOscan bromodomain competition binding assay (DiscoveRx)
Conditions: Kd from 11 compound concentrations ranging from 0 to 10 μM, read-out: BROMOscan Relative Activity
Method: Bromodomain assays were conducted to measure interactions between certain compounds and bromodomains.
The assays were conducted according to BROMOscan protocol from Discover Rx. Briefly, BRD4 bromodomains expressed as a fusion capsid protein of T7 phage were bound to acetylated peptide ligand on a solid phase and competition bindings were performed. T7 phage strains displaying bromodomains were grown in parallel in 24-well blocks in an E. coli host derived from the BL21 strain. E. coli were grown to log-phase and infected with T7 phage from a frozen stock (multiplicity of infection=0.4) and incubated with shaking at 32° C. until lysis (90-150 minutes). The lysates were centrifuged (5,000×g) and filtered (0.2 μm) to remove cell debris. […] The liganded beads were blocked with excess biotin and washed with blocking buffer (SeaBlock (Pierce), 1% BSA, 0.05% Tween 20, 1 mM DTT) to remove unbound ligand and to reduce non-specific phage binding. […] Test compounds were prepared as 1000× stocks in 100% DMSO and subsequently diluted 1:10 in monoethylene glycol (MEG) to create stocks at 100× the screening concentration (resulting stock solution is 10% DMSO/90% MEG). The compounds were then diluted directly into the assays such that the final concentration of DMSO and MEG were 0.1% and 0.9%, respectively. All reactions were performed in polystyrene 96-well plates in a final volume of 0.135 ml. […] The bromodomain concentration in the eluates was measured by qPCR. Data was collected at 11 compound concentrations ranging from 0 to 10 μM. Kd values were then derived from a standard dose-response curve generated with Hill equation (Hill Slope was set to ˜1) and a non-linear least square fit with the Levenberg-Marquardt algorithm. Response=Background+Signal−Background/1+(Kd Hill Slope/Dose Hill Slope)

Row | Kd [nM] | SMILES
1 | 500 to 5000 | Cc1noc(C)c1-c1ccc2nc(Cl)nc(NCc3cccc(Cl)c3)c2c1 [Example 1, 2-chloro-N-(3-chlorobenzyl)-6-(3,5-dimethylisoxazol-4-yl)quinazolin-4-amine]
2 | < 500 | Cc1noc(C)c1-c1ccc2ncnc(NCc3cccc(Cl)c3)c2c1 [Example 2, N-(3-chlorobenzyl)-6-(3,5-dimethylisoxazol-4-yl)quinazolin-4-amine]
3 | 500 to 5000 | Cc1noc(C)c1-c1ccc2nccc(NCc3cccc(Cl)c3)c2c1 [Example 3, N-(3-chlorobenzyl)-6-(3,5-dimethylisoxazol-4-yl)quinolin-4-amine]
4 | 500 to 5000 | Cc1cc(NCc2cccc(Cl)c2)c2cc(-c3c(C)noc3C)ccc2n1 [Example 4, N-(3-chlorobenzyl)-6-(3,5-dimethylisoxazol-4-yl)-2-methylquinolin-4-amine]
5 | 500 to 5000 | CNc1nc(NCc2cccc(Cl)c2)c2cc(-c3c(C)noc3C)ccc2n1 [Example 5, N4-(3-chlorobenzyl)-6-(3,5-dimethylisoxazol-4-yl)-N2-methylquinazoline-2,4-diamine]
6 | < 500 | Cc1noc(C)c1-c1ccc2nc(N3CCN(C)CC3)nc(NCc3cccc(Cl)c3)c2c1 [Example 6, N-(3-chlorobenzyl)-6-(3,5-dimethylisoxazol-4-yl)-2-(4-methylpiperazin-1-yl)quinazolin-4-amine]
7 | < 500 | Cc1noc(C)c1-c1ccc2nc(NC3CCN(C)CC3)nc(NCc3cccc(Cl)c3)c2c1 [Example 7, N4-(3-chlorobenzyl)-6-(3,5-dimethylisoxazol-4-yl)-N2-(1-methylpiperidin-4-yl)quinazoline-2,4-diamine]
8 | < 500 | COc1nc(NCc2cccc(Cl)c2)c2cc(-c3c(C)noc3C)ccc2n1 [Example 8, N-(3-chlorobenzyl)-6-(3,5-dimethylisoxazol-4-yl)-2-methoxyquinazolin-4-amine]
9 | < 500 | Cc1nc(NCc2cccc(Cl)c2)c2cc(-c3c(C)noc3C)ccc2n1 [Example 9, N-(3-chlorobenzyl)-6-(3,5-dimethylisoxazol-4-yl)-2-methylquinazolin-4-amine]
10 | < 500 | Cc1noc(C)c1-c1ccc2nc(NCCN3CCOCC3)nc(NCc3cccc(Cl)c3)c2c1 [Example 10, N4-(3-chlorobenzyl)-6-(3,5-dimethylisoxazol-4-yl)-N2-(2-morpholinoethyl)quinazoline-2,4-diamine]
11 | < 500 | Cc1noc(C)c1-c1ccc2nc(NCCN3CCN(C)CC3)nc(NCc3cccc(Cl)c3)c2c1 [Example 11, N4-(3-chlorobenzyl)-6-(3,5-dimethylisoxazol-4-yl)-N2-(2-(4-methylpiperazin-1-yl)ethyl)quinazoline-2,4-diamine]
12 | < 500 | Cc1noc(C)c1-c1ccc2nc(N3CCN(CCN(C)C)CC3)nc(NCc3cccc(Cl)c3)c2c1 [Example 12, N-(3-chlorobenzyl)-2-(4-(2-(dimethylamino)ethyl)piperazin-1-yl)-6-(3,5-dimethylisoxazol-4-yl)quinazolin-4-amine]
13 | < 500 | Cc1noc(C)c1-c1ccc2nc(NCCCO)nc(NCc3cccc(Cl)c3)c2c1 [Example 13, 3-((4-((3-chlorobenzyl)amino)-6-(3,5-dimethylisoxazol-4-yl)quinazolin-2-yl)amino)propan-1-ol]
14 | 500 to 5000 | Cc1noc(C)c1-c1ccc2nc(-c3c(C)noc3C)cc(NCc3cccc(Cl)c3)c2c1 [Example 14, N-(3-chlorobenzyl)-2,6-bis(3,5-dimethylisoxazol-4-yl)quinolin-4-amine]
15 | > 5000 | Cc1noc(C)c1-c1cc(NCc2cccc(Cl)c2)c2cc(Br)ccc2n1 [Example 15, 6-bromo-N-(3-chlorobenzyl)-2-(3,5-dimethylisoxazol-4-yl)quinolin-4-amine]
16 | < 500 | Cc1noc(C)c1-c1ccc2nc(N3CCN(CCCN(C)C)CC3)nc(NCc3cccc(Cl)c3)c2c1 [Example 16, N-(3-chlorobenzyl)-2-(4-(3-(dimethylamino)propyl)piperazin-1-yl)-6-(3,5-dimethylisoxazol-4-yl)quinazolin-4-amine]
17 | < 500 | Cc1noc(C)c1-c1ccc2nc(N3CCN(C(=O)C4CC4)CC3)nc(NCc3cccc(Cl)c3)c2c1 [Example 17, (4-(4-((3-chlorobenzyl)amino)-6-(3,5-dimethylisoxazol-4-yl)quinazolin-2-yl)piperazin-1-yl)(cyclopropyl)methanone]

Row | Kd [nM] | SMILES
18 | < 500 | Cc1noc(C)c1-c1ccc2nc(N3CCN(C(=O)c4cnn(C)c4)CC3)nc(NCc3cccc(Cl)c3)c2c1 [Example 18, (4-(4-((3-chlorobenzyl)amino)-6-(3,5-dimethylisoxazol-4-yl)quinazolin-2-yl)piperazin-1-yl)(1-methyl-1H-pyrazol-4-yl)methanone]
19 | > 5000 | CN(C)CCN1CCN(c2nc(NCc3cccc(Cl)c3)c3cc(Br)ccc3n2)CC1 [Example 19, 6-bromo-N-(3-chlorobenzyl)-2-(4-(2-(dimethylamino)ethyl)piperazin-1-yl)quinazolin-4-amine]
20 | < 500 | Cc1noc(C)c1-c1ccc2nc(N3CCN(CCO)CC3)nc(NCc3cccc(Cl)c3)c2c1 [Example 20, 2-(4-(4-((3-chlorobenzyl)amino)-6-(3,5-dimethylisoxazol-4-yl)quinazolin-2-yl)piperazin-1-yl)ethanol]
21 | 500 to 5000 | Cc1noc(C)c1-c1ccc2nc(N3CCN(CCC(C)C)CC3)nc(NCc3cccc(Cl)c3)c2c1 [Example 21, N-(3-chlorobenzyl)-6-(3,5-dimethylisoxazol-4-yl)-2-(4-isopentylpiperazin-1-yl)quinazolin-4-amine]
22 | < 500 | Cc1noc(C)c1-c1ccc2nc(N(C)CCN(C)C)nc(NCc3cccc(Cl)c3)c2c1 [Example 22, N4-(3-chlorobenzyl)-N2-(2-(dimethylamino)ethyl)-6-(3,5-dimethylisoxazol-4-yl)-N2-methylquinazoline-2,4-diamine]
23 | 500 to 5000 | Cc1noc(C)c1-c1ccc2nc(N3CCC(CO)CC3)nc(NCc3cccc(Cl)c3)c2c1 [Example 23, (1-(4-((3-chlorobenzyl)amino)-6-(3,5-dimethylisoxazol-4-yl)quinazolin-2-yl)piperidin-4-yl)methanol]
24 | 500 to 5000 | Cc1noc(C)c1-c1ccc2nc(N3CCCC(CO)C3)nc(NCc3cccc(Cl)c3)c2c1 (stereo not drawn) [Example 24, (1-(4-((3-chlorobenzyl)amino)-6-(3,5-dimethylisoxazol-4-yl)quinazolin-2-yl)piperidin-3-yl)methanol]
25 | 500 to 5000 | Cc1noc(C)c1-c1ccc2nc(N3CCCCC3CO)nc(NCc3cccc(Cl)c3)c2c1 (stereo not drawn) [Example 25, (1-(4-((3-chlorobenzyl)amino)-6-(3,5-dimethylisoxazol-4-yl)quinazolin-2-yl)piperidin-2-yl)methanol]
26 | < 500 | Cc1noc(C)c1-c1ccc2nc(N3CCN(CCN(C)C)CC3)cc(NCc3cccc(Cl)c3)c2c1 [Example 26, N-(3-chlorobenzyl)-2-(4-(2-(dimethylamino)ethyl)piperazin-1-yl)-6-(3,5-dimethylisoxazol-4-yl)quinolin-4-amine]
27 | 500 to 5000 | Cc1noc(C)c1-c1ccc2nc(NCc3cccc(Cl)c3)cc(N3CCN(CCN(C)C)CC3)c2c1 [Example 27, N-(3-chlorobenzyl)-4-(4-(2-(dimethylamino)ethyl)piperazin-1-yl)-6-(3,5-dimethylisoxazol-4-yl)quinolin-2-amine]
28 | < 500 | Cc1noc(C)c1-c1ccc2nc(-c3cnn(CCN4CCOCC4)c3)nc(NCc3cccc(Cl)c3)c2c1 [Example 28, N-(3-chlorobenzyl)-6-(3,5-dimethylisoxazol-4-yl)-2-(1-(2-morpholinoethyl)-1H-pyrazol-4-yl)quinazolin-4-amine]
29 | < 500 | Cc1noc(C)c1-c1ccc2nc(N3CCN(C(=O)c4ccncc4)CC3)nc(NCc3cccc(Cl)c3)c2c1 [Example 29, (4-(4-((3-chlorobenzyl)amino)-6-(3,5-dimethylisoxazol-4-yl)quinazolin-2-yl)piperazin-1-yl)(pyridin-4-yl)methanone]
30 | 500 to 5000 | Cc1noc(C)c1-c1ccc2nc(N3CCC(CCO)CC3)nc(NCc3cccc(Cl)c3)c2c1 [Example 30, 2-(1-(4-((3-chlorobenzyl)amino)-6-(3,5-dimethylisoxazol-4-yl)quinazolin-2-yl)piperidin-4-yl)ethanol]
31 | < 500 | Cc1noc(C)c1-c1ccc2nc(C3=CCNCC3)nc(NCc3cccc(Cl)c3)c2c1 [Example 31, N-(3-chlorobenzyl)-6-(3,5-dimethylisoxazol-4-yl)-2-(1,2,3,6-tetrahydropyridin-4-yl)quinazolin-4-amine]
32 | < 500 | Cc1noc(C)c1-c1ccc2nc(N3CCCN(CCN(C)C)CC3)nc(NCc3cccc(Cl)c3)c2c1 [Example 32, N-(3-chlorobenzyl)-2-(4-(2-(dimethylamino)ethyl)-1,4-diazepan-1-yl)-6-(3,5-dimethylisoxazol-4-yl)quinazolin-4-amine]
33 | < 500 | Cc1noc(C)c1-c1ccc2nc(N3CCCN(CCO)CC3)nc(NCc3cccc(Cl)c3)c2c1 [Example 33, 2-(4-(4-((3-chlorobenzyl)amino)-6-(3,5-dimethylisoxazol-4-yl)quinazolin-2-yl)-1,4-diazepan-1-yl)ethanol]
